Source: patent publication US6338963B1, “Use of carbon monoxide dependent guanylyl cyclase modifiers to stimulate neuritogenesis” (NeoTherapeutics, Inc., priority 1994, dated 2002)

Assays:
[1] = test system: neocortical astrocytes; experiment: NGF-like immunoreactivity in astrocyte culture medium (ELISA); assay type: cell-based, mouse; settings: astrocytes incubated with different concentrations
Protocol: Astrocytes appear to proliferate in response to extracellular guanosine or guanosine triphosphate (GTP). GTP or guanosine may also stimulate the release of trophic factors from cultures of neocortical astrocytes from neonatal mouse brains. Astrocytes were incubated with different concentrations of guanosine or GTP respectively. Neurotrophin imunoreactivity in the culture medium from treated cells was then measured by ELISA.
Briefly, 96 well Falcon plates (Fisher) were coated with […] of sheep mono-specific anti-NGF IgG (affinity column purified) contained in 0.1M sodium carbonate buffer pH 9.6. After an overnight incubation at 4° C. blocking solution (PBS with 10% goat serum) was added to remove excess antibody. After a four hour incubation at room temperature the plates were washed three times with PBS containing 0.05% Tween 20. The conditioned media and standard 2.5S HPLC purified NGF were added and incubated overnight. The next day plates were washed 3 times with PBS-0.05% Tween 20. The secondary antibody, rabbit mono-specific anti-NGF IgG conjugated with β-galactosidase (Pierce-SPDP method) (1:500 dilution) was added. The plates were incubated overnight at 4° C. The next day the plates were washed 3 times with PBS-0.05% Tween 20. […]
The ELISA assay detected neurotrophins NGF and NT-3 with ahnost equal affinity and BDNF with 100 times less affinity. […]

[2] = test system: mice; experiment: Exploratory activity in novel large cage; assay type: in vivo; settings: 30 minutes
Protocol: To measure exploratory behavior, subjects received saline or AIT-082 administration, were placed in a novel large cage (25×48×16 cm, W×L×H), and movement was measured at one-minute intervals for 30 minutes. The large cage (San Diego Instruments, San Diego, Calif.) was equipped with vertical detectors and rearing movements were also recorded.

[3] = test system: BDNF; experiment: Summary of effects on growth factor mRNA and protein (Table R): BDNF; parameters: key: ± = mRNA; + = protein; nt = not tested
Text: (§1) The constellation of effects of AIT-082 on production of mRNA encoding growth factors and on production of growth factor proteins is shown in Table R. The results summarized in […] show both transcriptional and translational effects on growth factors that are in the categories of neurotrophins, pleiotrophins, members of the S100 family of EF hand calcium binding proteins, and members of the TGFβ superfamily. As indicated, effects have been shown at both the mRNA (transcriptional) and protein (translational) levels.

[4] = test system: 38 isolated receptors; experiment: Receptor ligand binding in vitro (Nova Labs)
[5] = test system: Swiss Webster mice; experiment: T-maze discrimination learning and reversal; assay type: in vivo
Text: Subjects were also trained in the same T-maze used for the win-shift model discussed above. As in the win-shift method, subjects were shaped and then given a single reference run in which reward was available in both goal boxes. The subject was only allowed to consume the milk reward in the goal box selected. On the next run, the reward and thus the correct response was in the same goal box selected for the reference run and was not alternated. The subject was required to learn that there was no shift in the goal box for the correct response. The subjects were given 10 trials per day and continued until the subject had at least 8 out of 10 correct responses on two consecutive days. The number of days to reach this criteria of performance was recorded. After the subject reached criteria, the goal box for the correct response was reversed. The number of days taken to reach criteria on reversal was recorded.

[6] = test system: cultured rat hippocampal neurons; experiment: NMDA-induced toxicity in cultured rat hippocampal neurons, astrocyte conditioned medium
Protocol: To determine whether or not AIT-082 afforded in vitro neuroprotection, the effect of AIT-082 on toxicity induced by N-methyl-D-aspartate (NMDA) in cultured rat hippocampal neurons was studied.
To determine whether AIT-082 protected against neuronal toxicity induced by NMDA, and whether astrocytes might be involved, cultured astrocytes were exposed to AIT-082 for 6 hr. The drug was then removed and cultures were kept in fresh medium for the following 20 hr. This conditioned medium was then added to primary cultures of rat hippocampal neurons on the seventh day in vitro, immediately after they had been exposed to a toxic pulse of NMDA.
It was next evaluated whether the addition of conditioned medium (CM) deriving from astrocyte cultures treated with 100 μM AIT-082 generated protection against damage induced by a toxic pulse with 100 μM NMDA in cultured neurons.
The effects of NMDA are shown in FIG. 66A on cortical cells and in FIG. 66B for hippocampal cells.

[7] = test system: cultured neurons from rat cerebral cortex; experiment: NMDA-induced toxicity in cultured rat cortical neurons, astrocyte conditioned medium; assay type: cell-based; settings: CM from astrocytes treated 6 hours with AIT-082
Protocol: In these experiments, cultured neurons were prepared from rat cerebral cortex. In these cultures the NMDA pulse (100 μM for 10 min) provoked about 80% neuronal death (measured by Trypan blue cell staining or LDH activity). Separately, cultured astrocytes were treated for 6 hours with AIT-082. Then, the medium containing the drug was replaced with fresh medium without the drug and the astrocyte cultures were maintained in this medium for the next 24 hours. This medium represented the CM and was added to neurons soon after the toxic pulse with NMDA. The addition of CM partly counteracted the toxic effects caused by NMDA, reducing the neuronal damage by about 50%. If the medium was boiled for 20 min at 100° C. prior to addition to NMDA-damaged neurons, it completely lost the protective activity. […] To verify whether the neuroprotection caused by AIT-082 was ascribable to the production of TGFβ2 or NGF, antibodies to TGFβ2 or to NGF (100 ng/ml) were added together with CM.
Conversely, when DPCPX (100 nm) was added to astrocyte cultures together with AIT-082, the neuroprotective effect of the resulting CM deriving from the culture of the astrocytes with AIT-082 was reduced by only 20%, as compared to the neuroprotective effect of CM derived from astrocytes exposed to AIT-082 alone (assumed as equal to 100%).

[8] = test system: S100β; experiment: Summary of effects on growth factor mRNA and protein (Table R): S100β; parameters: key: ± = mRNA; + = protein; nt = not tested; settings: Cultured Cells
Text: as §1

Compound	NGF-like immunoreactivity in the culture medium [1]	exploratory activity [2]	BDNF, effect on mRNA/protein production ([3]; Aged Brain)	BDNF, effect on mRNA/protein production ([3]; Lesioned Spinal Cord)	BDNF, effect on mRNA/protein production ([3]; Normal Brain)	BDNF, effect on mRNA/protein production ([3]; Normal Spinal Cord)	inhibition of ligand binding [4]	T-maze Learning, Learning ([5]; AIT-082 0.5 mg/kg)	T-maze Learning, Reversal ([5]; AIT-082 0.5 mg/kg)	T-maze Learning, Learning ([5]; AIT-082 30.0 mg/kg)	T-maze Learning, Reversal ([5]; AIT-082 30.0 mg/kg)	reduction of cell damage ([6]; combination of 100 μM AIT-082 and CM, hippocampal cells, 100 μM NMDA)	reduction of the number of dead neurons and the production of LDH caused by NMDA ([6]; conditioned medium from astrocytes treated with AIT-082 (50-100 μM) for 6 hr)	reduction of neuronal damage caused by NMDA [7]	S100β, effect on mRNA/protein production [8]
Nc1nc2c(ncn2[C@@H]2O[C@H](CO)[C@@H](O)[C@H]2O)c(=O)[nH]1 [guanosine]	increased the amount of NGF-like immunoreactivity														
O=C(CCn1cnc2c(=O)[nH]cnc21)Nc1ccc(C(=O)O)cc1 [AIT-082, N-4-carboxyphenyl-3-(6-oxohydropurin-9-yl)propanamide]		No effects were noted	+	±	+	+	no activity	3.0 days to reach criteria	3.78 days to reach criteria	3.3 days to reach criteria	3.5 days to reach criteria	70-80%	50%	about 50%	+
